The source of these data is patent US20230391845A1, “GLP-1, GIP AND GLUCAGON RECEPTOR TRIPLE AGONISTS” (priority 2020, published 2023).

Data set [1] can be described thus: Pharmacokinetic study in minipigs, i.v. administration. More on the design: species or system Göttingen minipigs. As to conditions: minipig, in vivo, iv. On the procedure:
The purpose of this example is to determine the half-life in vivo of the triple agonists as described herein after i.v. administration to minipigs, i.e. the prolongation of their time in the body and thereby their time of action. This is done in a pharmacokinetic (PK) study, where the terminal half-life of the triple agonist in question is determined. By terminal half-life is generally meant the period of time it takes to halve a certain plasma concentration, measured after the initial distribution phase.
Female Göttingen minipigs were obtained from Ellegaard Göttingen Minipigs (Dalmose, Denmark) approximately 7-14 months of age and weighing from approximately 16-35 kg were used in the studies. The minipigs were housed individually and fed restrictedly once daily with SDS minipig diet (Special Diets Services, Essex, UK).
After at 3 weeks of acclimatisation two permanent central venous catheters were implanted in vena cava caudalis in each animal. The animals were allowed 1 week recovery after the surgery, and were then used for repeated pharmacokinetic studies with a suitable wash-out period between successive dosings.
The animals were fasted for approximately 18 hours before dosing and from 0 to 4 hours after dosing, but had adlibitum access to water during the whole period.
Intravenous injections (the volume corresponding to usually 1.5-2 nmol/kg, for example 0.1 mL/kg) of the triple agonists were given through one catheter, and blood was sampled at predefined time points for up to 14 days post dosing (preferably through the other catheter). Blood samples (for example 0.8 mL) were collected in 8 mM EDTA buffer and then centrifuged at 4° C. and 1942 g for 10 minutes.
Plasma was pipetted into Micronic tubes on dry ice and kept at −20° C. until analysed for plasma concentration of the triple agonists using ELISA, or a similar antibody-based assay, or LCMS. Individual plasma concentration-time profiles were analysed by a non-compartmental model in Phoenix WinNonLin ver. 6.4. (Pharsight Inc., Mountain View, CA, USA), and the resulting terminal half-lives (harmonic mean) determined.

A further data set deals with T1, human GLP-1 receptor (Homo sapiens, UniProt P43220).
T1 construct: expressed in transfected cells; host or cells: BHK cells (parent line BHKTS13) containing CRE luciferase
T1 sequence (P43220 24-463): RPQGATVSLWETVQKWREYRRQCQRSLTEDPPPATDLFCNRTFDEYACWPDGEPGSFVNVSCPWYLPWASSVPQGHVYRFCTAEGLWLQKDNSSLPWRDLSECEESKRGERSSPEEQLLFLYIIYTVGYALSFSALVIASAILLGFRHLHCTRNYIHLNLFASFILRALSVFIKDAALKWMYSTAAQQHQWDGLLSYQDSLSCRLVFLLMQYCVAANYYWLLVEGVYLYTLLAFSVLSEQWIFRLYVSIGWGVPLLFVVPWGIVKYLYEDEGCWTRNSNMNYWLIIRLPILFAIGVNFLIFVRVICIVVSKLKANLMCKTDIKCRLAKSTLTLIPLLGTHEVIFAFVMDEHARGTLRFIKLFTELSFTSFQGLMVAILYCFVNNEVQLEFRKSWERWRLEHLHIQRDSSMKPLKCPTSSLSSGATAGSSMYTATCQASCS
In words: In vitro functional potency (CRE luciferase; whole cells), human GLP-1R. The data set is classed as cell-based. Particulars: BHK CRE luc2P hGLP-1R whole cells; Table 2; read-out: hGLP-1R CRE Luc EC50.

*1 amine or outer side, *2 acyl side, *3 side chain or, on linkers, in order; H or OH if unused. Where a SMILES comes first, the peptide text is derived from it. Side-chain parts run from the residue outwards. [ ]: non-standard residue; d: D form. The star is where a group is joined. X1 = O=C(O)CCCCCCCCCCCCCCCCCCC(=O)NCC1CCC(C(=O)*)CC1; C20 diacid = O=C(O)CCCCCCCCCCCCCCCCCCC(=O)*; γGlu = O=C(O)[C@H](CCC(=O)[*:2])N[*:1]; εLys = N[C@@H](CCCCN[*:1])C(=O)[*:2]; AEEA = NCCOCCOCC(=O)O; Aib = CC(C)(N)C(=O)O

Take `CC[C@H](C)[C@H](NC(=O)[C@H](CO)NC(=O)[C@H](Cc1ccc(O)cc1)NC(=O)[C@H](CC(=O)O)NC(=O)[C@H](CO)NC(=O)[C@@H](NC(=O)[C@H](Cc1ccccc1)NC(=O)[C@@H](NC(=O)CNC(=O)[C@H](Cc1c[nH]cn1)NC(=O)C(C)(C)NC(=O)[C@@H](N)Cc1c[nH]cn1)[C@@H](C)O)[C@@H](C)O)C(=O)N[C@@H](Cc1ccc(O)cc1)C(=O)N[C@@H](CC(C)C)C(=O)N[C@@H](CCC(=O)O)C(=O)N[C@@H](CCCCNC(=O)COCCOCCNC(=O)COCCOCCNC(=O)CC[C@H](NC(=O)CCCCCCCCCCCCCCCCCCC(=O)O)C(=O)O)C(=O)N[C@@H](CCCCN)C(=O)N[C@@H](Cc1ccc(O)cc1)C(=O)N[C@@H](C)C(=O)NC(C)(C)C(=O)N[C@@H](CCC(=O)O)C(=O)N[C@@H](Cc1ccccc1)C(=O)N[C@H](C(=O)N[C@@H](CCC(N)=O)C(=O)N[C@@H](Cc1c[nH]c2ccccc12)C(=O)N[C@@H](CC(C)C)C(=O)N[C@@H](CC(C)C)C(=O)N[C@@H](CCC(=O)O)C(=O)NCC(=O)NCC(=O)N1CCC[C@H]1C(=O)N[C@@H](CO)C(=O)N[C@@H](CO)C(=O)NCC(=O)N[C@@H](C)C(=O)N1CCC[C@H]1C(=O)N1CCC[C@H]1C(=O)N1CCC[C@H]1C(=O)N[C@@H](CO)C(N)=O)C(C)C` [Compound No. 39] (H-H[Aib]HGTFTSDYSIYLEK([AEEA-AEEA-γGlu-C20 diacid])KYA[Aib]EFVQWLLEGGPSSGAPPPS-NH2): the half-life in data set [1] (female, Göttingen) was 66 h. In addition, the EC50 on human GLP-1 receptor worked out at 4.4 pM.
Compound `CC[C@H](C)[C@H](NC(=O)[C@H](CO)NC(=O)[C@H](Cc1ccc(O)cc1)NC(=O)[C@H](CC(=O)O)NC(=O)[C@H](CO)NC(=O)[C@@H](NC(=O)[C@H](Cc1ccccc1)NC(=O)[C@@H](NC(=O)CNC(=O)[C@H](CCC(N)=O)NC(=O)C(C)(C)NC(=O)[C@@H](N)Cc1ccc(O)cc1)[C@@H](C)O)[C@@H](C)O)C(=O)N[C@@H](Cc1ccc(O)cc1)C(=O)N[C@@H](CC(C)C)C(=O)N[C@@H](CC(=O)O)C(=O)N[C@@H](CCCCN)C(=O)N[C@@H](CCC(N)=O)C(=O)N[C@@H](C)C(=O)N[C@@H](C)C(=O)NC(C)(C)C(=O)N[C@@H](CCCCNC(=O)COCCOCCNC(=O)COCCOCCNC(=O)CC[C@H](NC(=O)C1CCC(CNC(=O)CCCCCCCCCCCCCCCCCCC(=O)O)CC1)C(=O)O)C(=O)N[C@@H](Cc1ccccc1)C(=O)N[C@H](C(=O)N[C@@H](CCC(N)=O)C(=O)N[C@@H](Cc1c[nH]c2ccccc12)C(=O)N[C@@H](CC(C)C)C(=O)N[C@@H](CC(C)C)C(=O)N[C@@H](CCC(=O)O)C(=O)NCC(=O)NCC(=O)N1CCC[C@H]1C(=O)N[C@@H](CO)C(=O)N[C@@H](CO)C(=O)NCC(=O)N[C@@H](C)C(=O)N1CCC[C@H]1C(=O)N1CCC[C@H]1C(=O)N1CCC[C@H]1C(=O)N[C@@H](CO)C(N)=O)C(C)C` (some centres unmarked) [Compound No. 8] (H-Y[Aib]QGTFTSDYSIYLDKQAA[Aib]K([AEEA-AEEA-γGlu-X1])FVQWLLEGGPSSGAPPPS-NH2; N-terminus assumed) showed a half-life in data set [1] of 81 h.
`CC(C)C[C@H](NC(=O)[C@H](CC(C)C)NC(=O)[C@H](Cc1c[nH]c2ccccc12)NC(=O)[C@H](CCC(N)=O)NC(=O)[C@@H](NC(=O)[C@H](Cc1ccccc1)NC(=O)[C@H](CCC(=O)O)NC(=O)C(C)(C)NC(=O)[C@H](C)NC(=O)[C@H](C)NC(=O)[C@H](CCCCN)NC(=O)[C@H](CCCCNC(=O)[C@@H](N)CCCCNC(=O)[C@@H](N)CCCCNC(=O)CC[C@H](NC(=O)CCCCCCCCCCCCCCCCCCC(=O)O)C(=O)O)NC(=O)[C@H](CCC(=O)O)NC(=O)[C@H](CC(C)C)NC(=O)[C@H](Cc1ccc(O)cc1)NC(=O)[C@H](Cc1ccc(O)cc1)NC(=O)[C@H](CO)NC(=O)[C@H](Cc1ccc(O)cc1)NC(=O)[C@H](CC(=O)O)NC(=O)[C@H](CO)NC(=O)[C@@H](NC(=O)[C@H](Cc1ccccc1)NC(=O)[C@@H](NC(=O)CNC(=O)[C@H](Cc1c[nH]cn1)NC(=O)C(C)(C)NC(=O)[C@@H](N)Cc1c[nH]cn1)[C@@H](C)O)[C@@H](C)O)C(C)C)C(=O)N[C@@H](CCC(=O)O)C(=O)NCC(=O)NCC(=O)N1CCC[C@H]1C(=O)N[C@@H](CO)C(=O)N[C@@H](CO)C(=O)NCC(=O)N[C@@H](C)C(=O)N1CCC[C@H]1C(=O)N1CCC[C@H]1C(=O)N1CCC[C@H]1C(=O)N[C@@H](CO)C(N)=O` [Compound No. 31] (H-H[Aib]HGTFTSDYSYYLEK([εLys-εLys-γGlu-C20 diacid])KAA[Aib]EFVQWLLEGGPSSGAPPPS-NH2; N-terminus assumed) gave a half-life in data set [1] (female, Göttingen) of 55 h. For the same compound, the EC50 at human GLP-1 receptor was determined as 3 pM.
Take `CC(C)C[C@H](NC(=O)[C@H](CC(C)C)NC(=O)[C@H](Cc1c[nH]c2ccccc12)NC(=O)[C@H](CCC(N)=O)NC(=O)[C@@H](NC(=O)[C@H](Cc1ccccc1)NC(=O)[C@H](CCC(=O)O)NC(=O)C(C)(C)NC(=O)[C@H](C)NC(=O)[C@H](C)NC(=O)[C@H](CCC(N)=O)NC(=O)[C@H](CCCCNC(=O)[C@@H](N)CCCCNC(=O)[C@@H](N)CCCCNC(=O)CC[C@H](NC(=O)CCCCCCCCCCCCCCCCCCC(=O)O)C(=O)O)NC(=O)[C@H](CCC(=O)O)NC(=O)[C@H](CC(C)C)NC(=O)[C@H](CC(C)C)NC(=O)[C@H](Cc1ccc(O)cc1)NC(=O)[C@H](CO)NC(=O)[C@H](Cc1ccc(O)cc1)NC(=O)[C@H](CC(=O)O)NC(=O)[C@H](CO)NC(=O)[C@@H](NC(=O)[C@H](Cc1ccccc1)NC(=O)[C@@H](NC(=O)CNC(=O)[C@H](Cc1c[nH]cn1)NC(=O)C(C)(C)NC(=O)[C@@H](N)Cc1c[nH]cn1)[C@@H](C)O)[C@@H](C)O)C(C)C)C(=O)N[C@@H](CCC(=O)O)C(=O)NCC(=O)NCC(=O)N1CCC[C@H]1C(=O)N[C@@H](CO)C(=O)N[C@@H](CO)C(=O)NCC(=O)N[C@@H](C)C(=O)N1CCC[C@H]1C(=O)N1CCC[C@H]1C(=O)N1CCC[C@H]1C(=O)N[C@@H](CO)C(N)=O` [Compound No. 42] (H-H[Aib]HGTFTSDYSYLLEK([εLys-εLys-γGlu-C20 diacid])QAA[Aib]EFVQWLLEGGPSSGAPPPS-NH2; N-terminus assumed): the half-life in data set [1] (female, Göttingen) was 66 h.
For `CC[C@H](C)[C@H](NC(=O)[C@H](CO)NC(=O)[C@H](Cc1ccc(O)cc1)NC(=O)[C@H](CC(=O)O)NC(=O)[C@H](CO)NC(=O)[C@@H](NC(=O)[C@H](Cc1ccccc1)NC(=O)[C@@H](NC(=O)CNC(=O)[C@H](CCC(N)=O)NC(=O)C(C)(C)NC(=O)[C@@H](N)Cc1ccc(O)cc1)[C@@H](C)O)[C@@H](C)O)C(=O)N[C@@H](Cc1ccc(O)cc1)C(=O)N[C@@H](CC(C)C)C(=O)N[C@@H](CC(=O)O)C(=O)N[C@@H](CCCCN)C(=O)N[C@@H](CCCCNC(=O)COCCOCCNC(=O)COCCOCCNC(=O)CC[C@H](NC(=O)CCCCCCCCCCCCCCCCCCC(=O)O)C(=O)O)C(=O)N[C@@H](C)C(=O)N[C@@H](C)C(=O)NC(C)(C)C(=O)N[C@@H](CCC(=O)O)C(=O)N[C@@H](Cc1ccccc1)C(=O)N[C@H](C(=O)N[C@@H](CC(N)=O)C(=O)N[C@@H](Cc1c[nH]c2ccccc12)C(=O)N[C@@H](CC(C)C)C(=O)N[C@@H](CC(C)C)C(=O)N[C@@H](C)C(=O)NCC(=O)NCC(=O)N1CCC[C@H]1C(=O)N[C@@H](CO)C(=O)N[C@@H](CO)C(=O)NCC(=O)N[C@@H](C)C(=O)N1CCC[C@H]1C(=O)N1CCC[C@H]1C(=O)N1CCC[C@H]1C(=O)N[C@@H](CO)C(N)=O)C(C)C` [Compound No. 9] (H-Y[Aib]QGTFTSDYSIYLDKK([AEEA-AEEA-γGlu-C20 diacid])AA[Aib]EFVNWLLAGGPSSGAPPPS-NH2), the half-life in data set [1] (female, Göttingen) was 103 h. Besides, the EC50 at human GLP-1 receptor is 4.4 pM.

A word on the half-life: it is the time in which the quantity being followed falls by half. Lower therefore signals rapid decline. For orientation: EC50 means the concentration needed to bring the measured effect to its halfway point.
